Reference: US10815257B2, “Polymorph of sodium neridronate and preparation process thereof” (ABIOGEN PHARMA S.P.A., priority 2018, dated 2020)

Assays:
Format in all cases: physicochemical
[1] = Hygroscopicity study by Dynamic Vapor Sorption (DVS); conditions: 25° C.; for mass variation (humidity absorption, DVS): 90% relative humidity (RH); for behavior in DVS hygroscopicity study: RH 0 to 90%
Description: The Hygroscopicity study was carried out on samples of polymorphic crystalline forms F, B and E of sodium neridronate by measuring the humidity absorption kinetics, in a range of relative humidity (RH %) comprised between 0 and 90%, at the temperature of 25° C.

[2] = Stability study at 40° C. and 75% RH monitored by XRD; conditions: for stability of crystalline form over time (XRD): eight weeks observation
Description: The stability study was carried out on samples of crystalline polymorphic forms B, E, and the hemihydrate form F of sodium neridronate, stored in an environment characterized by 75% relative humidity (RH) and a temperature of 40° C.
The observation of the sample stability lasted for a period of eight weeks, during which once a week, […], an aliquot was taken from each sample and subjected to XRD analysis to observe any possible crystalline changes of the various samples over time.

[3] = Thermodynamic solubility test; conditions: buffer solution pH 7.4, 37° C., stirring about 500 rpm
Description: For this purpose, a dissolution test was carried out in a buffer solution at pH 7.4. The thermodynamic solubility evaluation was performed leaving the sample in the buffer solution, under magnetic stirring at about 500 rpm, for a period of 24 hours, at a temperature of 37° C.

| SMILES | mass variation (humidity absorption, DVS) [1] | behavior in DVS hygroscopicity study [1] | onset of conversion into crystalline hemihydrate form F (XRD) [2] | extent of conversion into form F at the end of the observation period (XRD) ([2]; eight weeks) | stability of crystalline form over time (XRD) [2] | thermodynamic solubility ([3]; 24 hours) [mg/mL] | extent of conversion into form F after seven weeks (XRD) ([2]; seven weeks) | solubility thermodynamic at 24 h ([3]; buffer solution, 37 °C, pH 7.4, aqueous buffer, thermodynamic from solid) [mg/mL] |
| --- | --- | --- | --- | --- | --- | --- | --- | --- |
| NCCCCCC(O)(P(=O)([O-])O)P(=O)(O)O.[Na+] [form B, sodium neridronate] | about 5% | hydrophilic behavior | begin to convert into the crystalline hemihydrate form F already after a week | only partially converted | not stable over time | 92.97 |  |  |
| NCCCCCC(O)(P(=O)([O-])O)P(=O)(O)O.[Na+] [form E, sodium neridronate] | about 1% | hydrophilic behavior | begin to convert into the crystalline hemihydrate form F already after a week |  | not stable over time |  | completely converted into the crystalline hemihydrate form F |  |
| NCCCCCC(O)(P(=O)([O-])O)P(=O)(O)O.[Na+] [form F, sodium neridronate] | without any appreciable mass variation | hydrophobic behavior |  |  | stable even after eight weeks conditioning |  |  | 93.7 |
